Drawing on US9394289B2, “Inhibitors of c-fms kinase” (Janssen Pharmaceutica NV, priority 2006, dated 2016), this text covers IC50 for 21 compounds.

Structures can show the parent of a compound that is named as a salt. Where only a bound is given, the exact number is not on record here.

Experiment [1] has as its target c-fms (Homo sapiens (Human), UniProt P07333). The experiment can be described thus: Autophosphorylation fluorescence polarization competition immunoassay for c-fms inhibition. It is filed as biochemical. The note with it: averages of three independent measurements; table head says 1 nM c-fms, method says 10 nM c-fms, 1 mM ATP; read-out: 1 nM c-fms; peptide Pi assay IC-50. On the procedure:
Fluorescence Polarization Competition Immunoassay
The assay buffer used was 100 mM 4-(2-hydroxyethyl)piperazine 1-ethanesulfonic acid (HEPES), pH 7.5, 1 mM 1,4-dithio-DL-threitol (DTT), 0.01% (v/v) Tween-20. Compounds were diluted in assay buffer containing 4% dimethylsulfoxide (DMSO) just prior to the assay. To each well, 5 μL of compound were added followed by the addition of 3 μL of a mix containing 33 nM c-fms (Johnson & Johnson PRD) and 16.7 mM MgCl2 (Sigma) in assay buffer. The kinase reaction was initiated by adding 2 μL of 5 mM ATP (Sigma) in assay buffer. […] Control reactions were ran in each plate: in positive and negative control wells, assay buffer (made 4% in DMSO) was substituted for the compound; in addition, positive control wells received 1.2 μL of 50 mM ethylenediaminetetraaceticacid (EDTA).
The plates were incubated at room temperature for 45 min. At the end of the incubation, the reaction was quenched with 1.2 μL of 50 mM EDTA (EDTA was not added to the positive control wells at this point; see above). Following a 5-min incubation, each well received 10 μL of a 1:1:3 mixture of anti-phosphotyrosine antibody, 10×, PTK green tracer, 10× (vortexed), FP dilution buffer, respectively (all from PanVera, cat. #P2837). The plate was covered, incubated for 30 min at room temperature and the fluorescence polarization was read on the Analyst. The instrument settings were: 485 nm excitation filter; 530 nm emission filter; Z height: middle of well; G factor: 0.93. […] The reported IC50 values are averages of three independent measurements.
(In general: In fluorescence polarisation assays a small probe gives low polarisation when free and higher when bound to something large.)

Experiment [2] relates to mouse bone-marrow derived macrophages (BMDM). The experiment can be described thus: CSF-1-driven mouse bone-marrow derived macrophages proliferation assay (BrDU incorporation). Conditions: Mus musculus, BMDM, 30 hrs culture, read-out: mCSF driven proliferation BMDM (Mouse) IC-50. It is filed as cell-based. On the procedure: CSF-1-Driven Mouse Bone-Marrow Derived Macrophages Assay
Macrophages are derived by culturing mouse bone marrow in alpha-MEM supplemented with 10% FCS and 50 ng/ml recombinant mouse CSF-1 in bacteriologic dishes. On the sixth day, macrophages are detached from dishes, washed, and resuspended to 0.05 million cells/ml in alpha-MEM containing 10% FCS. One hundred ul of cell suspension are distributed per well into 96 well culture plates. Wells are further supplemented with the addition of 50 ul media containing 15 ng/ml CSF-1, 3 uM Indomethacin, and 3× of a dilution series of test compounds. The cells are cultured for 30 hrs at 37 degrees and 5% CO2. During the final six hours, cultures are supplemented with an additional 30 ul of media containing a 1:500 dilution of bromodeoxyuridine (BrDU). At the end of the culture period, the plates are spun at 1000 RPM for 1 minute and 130 ul of media is removed with a pipet and replaced with 150 ul of fixative solution for 1 hour @ room temperature. The fixative is then dispelled from the plates and the plates allowed to air dry. Incorporation of BrDU into the fixed, dried cells is quantified using a specific ELISA.

c-fms, sequence (P07333 20-972): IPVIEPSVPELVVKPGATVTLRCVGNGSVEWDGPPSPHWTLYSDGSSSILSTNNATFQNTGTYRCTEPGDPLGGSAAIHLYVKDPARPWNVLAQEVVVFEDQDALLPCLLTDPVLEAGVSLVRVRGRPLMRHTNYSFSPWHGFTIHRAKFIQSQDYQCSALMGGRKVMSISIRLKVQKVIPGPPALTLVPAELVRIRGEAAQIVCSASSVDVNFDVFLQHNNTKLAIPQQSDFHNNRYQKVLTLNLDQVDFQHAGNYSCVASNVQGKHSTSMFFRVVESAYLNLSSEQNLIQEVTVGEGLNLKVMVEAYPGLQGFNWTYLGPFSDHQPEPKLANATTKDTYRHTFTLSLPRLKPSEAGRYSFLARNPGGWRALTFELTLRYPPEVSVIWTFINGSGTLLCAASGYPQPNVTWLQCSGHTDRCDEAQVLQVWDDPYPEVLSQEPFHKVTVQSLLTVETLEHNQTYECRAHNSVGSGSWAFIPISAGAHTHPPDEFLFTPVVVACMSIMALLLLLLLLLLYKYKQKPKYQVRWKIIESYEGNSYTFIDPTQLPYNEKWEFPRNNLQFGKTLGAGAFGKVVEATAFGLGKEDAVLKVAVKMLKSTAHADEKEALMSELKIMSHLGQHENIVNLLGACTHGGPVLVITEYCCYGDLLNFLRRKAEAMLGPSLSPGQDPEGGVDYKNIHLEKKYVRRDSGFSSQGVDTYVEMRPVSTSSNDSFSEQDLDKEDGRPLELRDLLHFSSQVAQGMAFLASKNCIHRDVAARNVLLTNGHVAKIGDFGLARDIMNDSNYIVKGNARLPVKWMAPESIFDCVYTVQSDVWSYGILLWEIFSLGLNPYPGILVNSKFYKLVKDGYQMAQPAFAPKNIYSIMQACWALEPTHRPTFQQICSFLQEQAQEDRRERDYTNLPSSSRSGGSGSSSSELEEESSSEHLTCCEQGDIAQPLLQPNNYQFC

Consider `CC1(C)CC=C(c2cc(C3(O)CCOCC3)ccc2NC(=O)c2ncc(C#N)[nH]2)CC1` [Example 1, 5-Cyano-1H-imidazole-2-carboxylic acid [2-(4,4-dimethyl-cyclohex-1-enyl)-4-(4-hydroxy-tetrahydro-pyran-4-yl)-phenyl]-amide], for which the IC50 in experiment [1] was 0.7 nM; in experiment [2] it was 4 nM. For `CN(C)CCOC1(c2ccc(NC(=O)c3ncc(C#N)[nH]3)c(C3=CCC(C)(C)CC3)c2)CCOCC1` [Example 2, 5-Cyano-1H-imidazole-2-carboxylic acid [4-[4-(2-dimethylamino-ethoxy)-tetrahydro-pyran-4-yl]-2-(4,4-dimethyl-cyclohex-1-enyl)-phenyl]-amide trifluoroacetic acid salt] the same measures were 0.42 nM and 2.2 nM. For `CC1(C)CC=C(c2cc(C3(OCC(=O)O)CCOCC3)ccc2NC(=O)c2ncc(C#N)[nH]2)CC1` [Example 3, {4-[4-[(5-Cyano-1H-imidazole-2-carbonyl)-amino]-3-(4,4-dimethyl-cyclohex-1-enyl)-phenyl]-tetrahydro-pyran-4-yloxy}-acetic acid], in experiment [1], the IC50 was 1.7 nM. Turning to `COCCNC1(c2ccc(NC(=O)c3nc(C#N)c[nH]3)c(C3=CCC(C)(C)CC3)c2)CCOCC1` [Example 4, 4-Cyano-1H-imidazole-2-carboxylic acid {2-(4,4-dimethyl-cyclohex-1-enyl)-4-[4-(2-methoxy-ethylamino)-tetrahydro-pyran-4-yl]-phenyl}-amide], the IC50 in experiment [1] was found to be 1.8 nM; in experiment [2], 14 nM. For `CC1(C)CC=C(c2cc(C3(N)CCOCC3)ccc2NC(=O)c2ncc(C#N)[nH]2)CC1` [Example 5, 5-Cyano-1H-imidazole-2-carboxylic acid [4-(4-amino-tetrahydro-pyran-4-yl)-2-(4,4-dimethyl-cyclohex-1-enyl)-phenyl]-amide] the same measures were 0.5 nM and 2.4 nM. As for `CC1(C)CC=C(c2cc(C3(N4CCOCC4)CCOCC3)ccc2NC(=O)c2ncc(C#N)[nH]2)CC1` [Example 6, 5-Cyano-1H-imidazole-2-carboxylic acid [2-(4,4-dimethyl-cyclohex-1-enyl)-4-(4-morpholin-4-yl-tetrahydro-pyran-4-yl)-phenyl]-amide], the IC50 in experiment [1] was 1.6 nM; in experiment [2], 15 nM. Regarding `CN(C)C1(c2ccc(NC(=O)c3ncc(C#N)[nH]3)c(C3=CCC(C)(C)CC3)c2)CCOCC1` [Example 7, 5-Cyano-1H-imidazole-2-carboxylic acid [4-(4-dimethylamino-tetrahydro-pyran-4-yl)-2-(4,4-dimethyl-cyclohex-1-enyl)-phenyl]-amide], the results for the IC50 in experiment [1] and in experiment [2] were 0.67 nM and 11 nM, respectively. For `CN1CCN(C2(c3ccc(NC(=O)c4ncc(C#N)[nH]4)c(C4=CCC(C)(C)CC4)c3)CCOCC2)CC1` [Example 8, 5-Cyano-1H-imidazole-2-carboxylic acid {2-(4,4-dimethyl-cyclohex-1-enyl)-4-[4-(4-methyl-piperazin-1-yl)-tetrahydro-pyran-4-yl]-phenyl}-amide] the same measures were 4 nM and 15 nM.

For `CC1(C)CC=C(c2cc(C3(N4CCNCC4)CCOCC3)ccc2NC(=O)c2ncc(C#N)[nH]2)CC1` [Example 9, 5-Cyano-1H-imidazole-2-carboxylic acid [2-(4,4-dimethyl-cyclohex-1-enyl)-4-(4-piperazin-1-yl-tetrahydro-pyran-4-yl)-phenyl]-amide], the figures for the IC50 in experiment [1] and in experiment [2] were 1.9 nM and 100 nM, respectively. With `CC1(C)CC=C(c2cc(C3(N4CCN(CC(=O)O)CC4)CCOCC3)ccc2NC(=O)c2ncc(C#N)[nH]2)CC1` [Example 10, (4-{4-[4-[(5-Cyano-1H-imidazole-2-carbonyl)-amino]-3-(4,4-dimethyl-cyclohex-1-enyl)-phenyl]-tetrahydro-pyran-4-yl}-piperazin-1-yl)-acetic acid trifluoroacetic acid salt], the results for the IC50 in experiment [1] and in experiment [2] were 7.9 nM and greater than 300 nM, respectively. As to `CC1(C)CC=C(c2cc(C3(O)CCSCC3)ccc2NC(=O)c2nc(C#N)c[nH]2)CC1` [Example 11, 4-Cyano-1H-imidazole-2-carboxylic acid [2-(4,4-dimethyl-cyclohex-1-enyl)-4-(4-hydroxy-tetrahydro-thiopyran-4-yl)-phenyl]-amide], the IC50 in experiment [1] amounted to 2.9 nM; in experiment [2], 35 nM. Regarding `CC1(C)CC=C(c2cc(C3(O)CCS(=O)(=O)CC3)ccc2NC(=O)c2nc(C#N)c[nH]2)CC1` [Example 12, 4-Cyano-1H-imidazole-2-carboxylic acid [2-(4,4-dimethyl-cyclohex-1-enyl)-4-(4-hydroxy-1,1-dioxo-hexahydro-1λ^6-thiopyran-4-yl)-phenyl]-amide], the values for the IC50 in experiment [1] and in experiment [2] were 1.1 nM and 31 nM, respectively. Regarding `CC(=O)N1CCC(N)(c2ccc(NC(=O)c3nc(C#N)c[nH]3)c(C3=CCC(C)(C)CC3)c2)CC1` [Example 13, 4-Cyano-1H-imidazole-2-carboxylic acid [4-(1-acetyl-4-amino-piperidin-4-yl)-2-(4,4-dimethyl-cyclohex-1-enyl)-phenyl]-amide acetic acid salt], the IC50 is 0.8 nM in experiment [1] and 8.1 nM in experiment [2].

Consider `N#Cc1c[nH]c(C(=O)Nc2ccc(C3(O)CCSCC3)cc2C2=CCCCC2)n1` [Example 14, 4-Cyano-1H-imidazole-2-carboxylic acid [2-cyclohex-1-enyl-4-(4-hydroxy-tetrahydro-thiopyran-4-yl)-phenyl]-amide], for which the IC50 in experiment [1] was determined as 3.9 nM; in experiment [2], 9.5 nM.

Take `N#Cc1c[nH]c(C(=O)Nc2ccc(C3(O)CCS(=O)(=O)CC3)cc2C2=CCCCC2)n1` [Example 15, 4-Cyano-1H-imidazole-2-carboxylic acid [2-cyclohex-1-enyl-4-(4-hydroxy-1,1-dioxo-hexahydro-1λ^6-thiopyran-4-yl)-phenyl]-amide]: the IC50 in experiment [2] is 14 nM. Regarding `COC(=O)C1(c2ccc(NC(=O)c3nc(C#N)c[nH]3)c(C3=CCC(C)(C)CC3)c2)CCOCC1` [Example 16, 4-[4-[(4-Cyano-1H-imidazole-2-carbonyl)-amino]-3-(4,4-dimethyl-cyclohex-1-enyl)-phenyl]-tetrahydro-pyran-4-carboxylic acid methyl ester], the IC50 in experiment [1] is 0.67 nM; in experiment [2], 46 nM. The corresponding values for `CC1(C)CC=C(c2cc(C3(C(=O)O)CCOCC3)ccc2NC(=O)c2nc(C#N)c[nH]2)CC1` [Example 17, 4-[4-[(4-Cyano-1H-imidazole-2-carbonyl)-amino]-3-(4,4-dimethyl-cyclohex-1-enyl)-phenyl]-tetrahydro-pyran-4-carboxylic acid] are 0.56 nM and greater than 300 nM. With `N#Cc1c[nH]c(C(=O)Nc2ccc(C3(C(=O)O)CCOCC3)cc2C2=CCCCC2)n1` [Example 18, 4-{4-[(4-Cyano-1H-imidazole-2-carbonyl)-amino]-3-cyclohex-1-enyl-phenyl}-tetrahydro-pyran-4-carboxylic acid], the IC50 in experiment [1] was determined as 3.6 nM; in experiment [2], 300 nM. As for `N#Cc1c[nH]c(C(=O)Nc2ccc(C3(C(N)=O)CCOCC3)cc2C2=CCCCC2)n1` [Example 19, 4-Cyano-1H-imidazole-2-carboxylic acid [4-(4-carbamoyl-tetrahydro-pyran-4-yl)-2-cyclohex-1-enyl-phenyl]-amide], the IC50 in experiment [1] was 1.8 nM; in experiment [2], 19 nM. With `N#Cc1c[nH]c(C(=O)Nc2ccc(C3(CO)CCOCC3)cc2C2=CCCCC2)n1` [Example 20, 4-Cyano-1H-imidazole-2-carboxylic acid [2-cyclohex-1-enyl-4-(4-hydroxymethyl-tetrahydro-pyran-4-yl)-phenyl]-amide], the IC50 in experiment [1] worked out at 1.8 nM; in experiment [2], 20 nM.

For `N#Cc1c[nH]c(C(=O)Nc2ccc(C3(CN4CCOCC4)CCOCC3)cc2C2=CCCCC2)n1` [Example 21, 4-Cyano-1H-imidazole-2-carboxylic acid [2-cyclohex-1-enyl-4-(4-morpholin-4-ylmethyl-tetrahydro-pyran-4-yl)-phenyl]-amide], the IC50 is 1.6 nM in experiment [1] and 7.9 nM in experiment [2].
